From patent US20240307819A1, “ELECTROCHEMICAL TARGET SPECIES CAPTURE WITH A REDOX-ACTIVE AMINE” (Massachusetts Institute of Technology, priority 2021, published 2024)

Legend:
[1] = Electrochemical release of CO2 by constant-current oxidation in an H-cell (electron utilization); design: key to stable electron utilization: moles CO2 released per mole of electrons transferred; conditions: for εCO2 (electron utilization during CO2 release): moles of CO2 released per moles of electrons, 0.1-0.2 M amine, constant current 50 mA
Experimental: FIGS. 5A-5F are related to electrochemical release of CO2. FIG. 5A is a schematic of the experimental setup for CO2 release. […] The amount of released CO2 (curve A) and electron utilization (curve B) are shown versus electric charge.
A bench-scale setup using an electrochemical H-cell was constructed and tested for the capture and release of CO2 (FIG. 5A). The system was equipped with an anion exchange membrane separating two 5 mL reaction chambers, carbon felt as a working electrode, and a stainless steel wire electrode for an arbitrary reaction in the counter chamber. […] Then, pure CO2 was bubbled into the solution for 10 min to complete the saturation of the electrochemically generated 1-Apyl radical dimer 3 solution. […] The electron utilization (εCO2) during CO2 release on oxidation represents the ratio between the moles of CO2 released and the moles of electrons transferred (equation 1): […]

[2] = CO2 absorption by electrochemically reduced amine solutions; conditions: for CO2 capacity (absorption capacity): 1 mL aqueous 0.1-0.2 M amine, reduced, 15% CO2 inlet gas
Experimental: FIGS. 6A-6D are related to CO2 absorption dynamics in 1-APyl radical 2 solutions. […] 0.2 M 1-APyl radical 2 solution in 1 mL of water was contacted with the gas at a flow rate of 3.3 mL/min at room temperature. […] 1 mL of 0.04 M 1-APyl radical 2 solution was contacted with the gas at a flow rate of 3.3 mL/min at room temperature. […] A flow of 15% CO2 concentration balanced by nitrogen was used.
The changes in flow rate and concentration of CO2 were monitored by a CO2 flow meter and an FT-IR CO2 sensor, respectively.

[3] = Cyclic voltammetry of the redox-active amines; conditions: for Potential gap / Ep^oxi vs Ag/AgCl / Ep^red vs Ag/AgCl: Table 1; for Potential gap: gap between Ep^oxi and Ep^red; for Ep^oxi vs Ag/AgCl / Ep^red vs Ag/AgCl: techniques of Example 1
Experimental: Potentials were recorded versus Ag/AgCl as a reference electrode.
Cyclic voltammetry (CV) was conducted to probe the mechanism of this process as depicted in FIG. 4E.
Each of structures 1-20 were assessed for electrochemical capture and release of carbon dioxide in accordance with the techniques described above in Example 1. Absorption capacities for carbon dioxide are reported in units of moles of CO2 per mole of amine. […] For the release experiments, 3.5 mL solutions of amine and captured carbon dioxide at concentrations ranging from 0.1-0.2 M of amine were electrochemically oxidized at a constant current of 50 mA while released CO2 was measured as a function of charge passed.

[4] = Direct capture of CO2 from ambient air, then electrochemical oxidation; conditions: 0.2 M, 3.5 mL, bubbled with air 18 h at ca. 100 mL/min
Experimental: (§1) FIGS. 8A-8C are related to direct air capture and stability test of 1-APyl radical 2 solution. […] 0.1, 0.2, and 0.4 M 1-APyl radical 2 aqueous solutions (1 mL) were bubbled with air at a flow rate of 3.3 mL/min at room temperature. […] The 1-APyl radical 2 solutions (0.2 M, 5 mL) were bubbled with dioxygen for 1 and 30 days (curve shading matching the shading of the labels in the figure) at a flow rate of 10 mL/min followed by contact with pure CO2 for an additional 12 min. The 1-APyl radical 2 solutions were sealed under nitrogen for 1 and 30 days followed by contact with pure CO2 for 12 min for the control experiments.
We next sought to expand the use of the 1-AP nitrate redox cycle to the direct capture of CO2 from ambient air (FIGS. 8A-8C). The 1-APyl radical dimer 3 solution (3.5 mL) was prepared by first reducing a 0.2 M 1-AP nitrate (1) solution, and then bubbling the solution with non-pretreated air for 18 h at a flow rate of ca. 100 mL/min (FIG. 8A). Electrochemical oxidation of the air-bubbled solution was carried out to evaluate the direct air capture efficiency. The system presented electron utilization during CO2 release of up to 0.78 with 36% cell capacity usage with the 0.2 M solution. […] Initial CO2 absorption rates from the ambient air were measured in 0.1, 0.2, and 0.4 M solutions of 1-APyl radical 2 (FIG. 8B). […]

[5] = Cyclic stability of electrochemical CO2 capture and release over 5 cycles
Experimental: FIGS. 7A-7D are related to cyclic stability of the electrochemical CO2 capture and release by 1-AP nitrate (1) redox system for 5 cycles.
The reversible capture and release of CO2 was tested over five cycles to evaluate the robustness of the 1-AP nitrate redox cycle (FIG. 7A-7D). The cyclic stability was evaluated with a 0.8 mmol amine solution and restricted to operate at 80% of the full capacity of the cell in order to minimize undesired side reactions. The gas output and CO2 fraction were monitored to show reproducible and stable capture and release of CO2 during five cycles under the applied current conditions. The gas release rate was steady at 0.75 mL/min, consistent with the release of one mole of CO2 per mole electrons transferred under steady current flow in each cycle.

Aqueous solubility = format: physicochemical; conditions: Table 1, aqueous solution
[6] = in water; cited from earlier work
[7] = Stability test of 1-APyl radical solution (oxygen sensitivity and nitrogen controls); format: physicochemical; conditions: 0.2 M, 5 mL
Experimental: as §1
To test the stability of the 1-APyl radical in air, a set of experiments was carried out (FIG. 8C). Exposure to pure dioxygen (10 mL/min) of the 1-APyl radical 2 solution (0.2 M, 5 mL) for 1 and 30 days (see corresponding curve in FIG. 8C) followed by saturation with pure CO2 provided 6.6% and 46% decrease, respectively, of the capacity of the system compared to the output for the freshly CO2-saturated solution (see corresponding curve in FIG. 8C). […] Although further studies for the stability under the various conditions are warranted, operation in the presence of oxygen remains feasible.

[8] = 20 mM in water, 0.1 M potassium nitrate, nitrogen, platinum working electrode, 20 mV/s, room temperature

Question: For `NC(=O)c1cc[n+](N)cc1.O=[N+]([O-])[O-]` [Entry 7], which “εCO2 (electron utilization during CO2 release)” value (shortened to “εCO2”) ([1]; 3.5 mL) is on record?
Answer: 0.69

Question: What about the “CO2 capacity (absorption capacity)” value ([2]; 3.3 mL/min) of the same compound?
Answer: 1.1 moles of CO2 per mole of amine

Question: And the Potential gap [3]?
Answer: 1.37 V

Question: And the “Ep^oxi vs Ag/AgCl” value [3]?
Answer: 0.88 V

Question: What about the “Ep^red vs Ag/AgCl” value [3] of the same compound?
Answer: −0.49 V

Question: Which stable electron utilization ([1]; 1 M 1-AP nitrate solution, 3.5 mL, 100 mA) does the source give for `N[n+]1ccccc1` [1-AP nitrate, 1-aminopyridinium] here?
Answer: 1.25

Question: And the “capacity of the electrochemical CO2 release process” value ([1]; per g of 1-AP nitrate)?
Answer: 12.4 mmol/g

Question: What about the electron utilization ([1]; solution prepared from 0.2 M 1-AP nitrate, 3.5 mL, 50 mA) of the same compound?
Answer: up to 1.08

Question: And the “cell capacity usage, direct air capture” value [4]?
Answer: 36%

Question: And the “electron utilization during CO2 release, direct air capture” value ([4]; 50 mA)?
Answer: up to 0.78

Question: And the gas release rate ([5]; 0.2 M, 0.8 mmol in 4 mL water, 50 mA, 80% of full capacity, each of 5 cycles)?
Answer: 0.75 mL/min

Question: What about the robustness over cycles ([5]; 5 cycles) of the same compound?
Answer: no significant loss in performance

Question: And the oxidative peak potential [3, 8]?
Answer: −0.32 V vs. Ag/AgCl

Question: And the reductive peak potential [3, 8]?
Answer: −0.45 V vs. Ag/AgCl

Question: For `COc1cc[n+](N)cc1.[O-][Cl+3]([O-])([O-])[O-]` [Entry 4], which “εCO2” value ([1]; 3.5 mL) is on record?
Answer: 0.70

Question: And the “Low solubility (Observations)” value (Aqueous solubility)?
Answer: (<0.2M)

Question: And the Potential gap [3]?
Answer: 1.75 V

Question: And the “Ep^oxi vs Ag/AgCl” value [3]?
Answer: 1.05 V

Question: What about the “Ep^red vs Ag/AgCl” value [3] of the same compound?
Answer: −0.70 V

Question: With `O=C(O)O` [carbonic acid] as the compound, how does the pKa [6] read?
Answer: approximately 6.8

Question: For `COC(=O)c1cc[n+](N)cc1.F[B-](F)(F)F` [Entry 1], which “Ep^red vs Ag/AgCl” value [3] is on record?
Answer: −0.34 V

Question: What does the source list for `Cc1cc(C)c[n+](N)c1.[O-][Cl+3]([O-])([O-])[O-]` [Entry 18]?
Answer: Potential gap [3]: 1.96 V; Ep^oxi vs Ag/AgCl [3]: 1.52 V; Ep^red vs Ag/AgCl [3]: −0.44 V

Question: With “1-aminopyridinyl (1-APyl) radical [1-APyl radical 2]” as the compound, how does the “CO2 absorption rate compared with EDA and MEA” value ([2]; 0.2 M in 1 mL water, 15% CO2 balanced by nitrogen) read?
Answer: comparable

Question: And the “constant CO2 capacity” value ([2]; 1, 4, 15 and 100% CO2 inlet gas streams, 3.3 mL/min, room temperature)?
Answer: 1.94 mole of CO2 per mole of amine

Question: What about the “decrease of the capacity of the system” value ([7]; bubbled with nitrogen 10 mL/min, 30 days) of the same compound?
Answer: 54%

Question: And the “decrease of the capacity of the system” value ([7]; pure dioxygen 10 mL/min, 1 day, vs freshly CO2-saturated solution)?
Answer: 6.6%

Question: And the “decrease of the capacity of the system” value ([7]; pure dioxygen 10 mL/min, 30 days)?
Answer: 46%

Question: And the “decrease of the capacity of the system” value ([7]; sealed under nitrogen, 1 day)?
Answer: 7.2%

Question: And the “decrease of the capacity of the system” value ([7]; sealed under nitrogen, 30 days)?
Answer: 22%

Question: What about the “stability in water (from quasi-reversible CV wave)” value ([3]; water, room temperature) of the same compound?
Answer: stable in water at room temperature

Question: What does the source list for `CC(C)(C)c1cc[n+](N)cc1.[O-][Cl+3]([O-])([O-])[O-]` [Entry 3]?
Answer: εCO2 (electron utilization during CO2 release) ([1]; 3.5 mL): 0.52; Low solubility (Observations) (Aqueous solubility): (<0.2M); Potential gap [3]: 1.31 V; Ep^oxi vs Ag/AgCl [3]: 0.83 V; Ep^red vs Ag/AgCl [3]: −0.48 V

Question: With `Cc1cccc(C)[n+]1N.[O-][Cl+3]([O-])([O-])[O-]` [Entry 17] as the compound, how does the Potential gap [3] read?
Answer: 1.47 V

Question: What about the “Ep^oxi vs Ag/AgCl” value [3] of the same compound?
Answer: 1.04 V

Question: What about the “Ep^red vs Ag/AgCl” value [3] of the same compound?
Answer: −0.43 V

Question: For `CN(C)c1cc[n+](N)cc1` [Entry 6], which “εCO2” value ([1]; 3.5 mL) is on record?
Answer: 0.99

Question: And the “CO2 capacity (absorption capacity)” value ([2]; 3.3 mL/min)?
Answer: 2.0 moles of CO2 per mole of amine

Question: What about the Potential gap [3] of the same compound?
Answer: 1.28 V

Question: What about the “Ep^oxi vs Ag/AgCl” value [3] of the same compound?
Answer: 0.85 V

Question: And the “Ep^red vs Ag/AgCl” value [3]?
Answer: −0.43 V

Question: What does the source list for `Nc1cc[n+](N)cc1` [Entry 5]?
Answer: εCO2 (electron utilization during CO2 release) ([1]; 3.5 mL): 0.99; CO2 capacity (absorption capacity) ([2]; 3.3 mL/min): 2.3 moles of CO2 per mole of amine; Potential gap [3]: 1.44 V; Ep^oxi vs Ag/AgCl [3]: 1.02 V; Ep^red vs Ag/AgCl [3]: −0.48 V

Question: Which results are given for `Cc1ccc[n+](N)c1.[O-][Cl+3]([O-])([O-])[O-]` [Entry 13]?
Answer: εCO2 (electron utilization during CO2 release) ([1]; 3.5 mL): 0.83; Potential gap [3]: 1.47 V; Ep^oxi vs Ag/AgCl [3]: 1.00 V; Ep^red vs Ag/AgCl [3]: −0.47 V

Question: Which solubility (Aqueous solubility; read-out: Low solubility (Observations)) does the source give for `N[n+]1c2ccccc2nc2ccccc21` [Entry 20, amino-phenazinium] here?
Answer: < 10 mM

Question: What does the source list for `N#Cc1cc[n+](N)cc1.O=[N+]([O-])[O-]` [Entry 8]?
Answer: εCO2 (electron utilization during CO2 release) ([1]; 3.5 mL): 0.70; CO2 capacity (absorption capacity) ([2]; 3.3 mL/min): 1.65 moles of CO2 per mole of amine; Potential gap [3]: 1.43 V; Ep^oxi vs Ag/AgCl [3]: 0.88 V; Ep^red vs Ag/AgCl [3]: −0.55 V

Question: For `COc1ccc[n+](N)c1.[O-][Cl+3]([O-])([O-])[O-]` [Entry 14], which “εCO2” value ([1]; 3.5 mL) is on record?
Answer: 0.41

Question: And the Potential gap [3]?
Answer: 1.30 V

Question: And the “Ep^oxi vs Ag/AgCl” value [3]?
Answer: 0.84 V

Question: What about the “Ep^red vs Ag/AgCl” value [3] of the same compound?
Answer: −0.44 V

Question: Which “εCO2” value ([1]; 3.5 mL) does the source give for `N[n+]1ccc(O)cc1` [Entry 9] here?
Answer: 0.32

Question: And the “CO2 capacity (absorption capacity)” value ([2]; 3.3 mL/min)?
Answer: 0.95 moles of CO2 per mole of amine

Question: And the Potential gap [3]?
Answer: 1.41 V

Question: What about the “Ep^oxi vs Ag/AgCl” value [3] of the same compound?
Answer: 0.85 V

Question: What about the “Ep^red vs Ag/AgCl” value [3] of the same compound?
Answer: −0.56 V

Question: Which results are given for `CNc1cc[n+](N)cc1.O=[N+]([O-])[O-]` [Entry 12]?
Answer: εCO2 (electron utilization during CO2 release) ([1]; 3.5 mL): 0.91; CO2 capacity (absorption capacity) ([2]; 3.3 mL/min): 1.6 moles of CO2 per mole of amine; Potential gap [3]: 1.34 V; Ep^oxi vs Ag/AgCl [3]: 0.87 V; Ep^red vs Ag/AgCl [3]: −0.47 V

Question: For `COc1cccc[n+]1N.O=[N+]([O-])[O-]` [Entry 16], which “εCO2” value ([1]; 3.5 mL) is on record?
Answer: 0.76

Question: And the “CO2 capacity (absorption capacity)” value ([2]; 3.3 mL/min)?
Answer: 1.05 moles of CO2 per mole of amine

Question: And the Potential gap [3]?
Answer: 2.46 V

Question: What about the “Ep^oxi vs Ag/AgCl” value [3] of the same compound?
Answer: 1.73 V

Question: And the “Ep^red vs Ag/AgCl” value [3]?
Answer: −0.73 V

Question: What does the source list for `Nc1ccc[n+](N)c1` [Entry 15]?
Answer: εCO2 (electron utilization during CO2 release) ([1]; 3.5 mL): 0.72; CO2 capacity (absorption capacity) ([2]; 3.3 mL/min): 1.1 moles of CO2 per mole of amine; Potential gap [3]: 1.73 V; Ep^oxi vs Ag/AgCl [3]: 1.03 V; Ep^red vs Ag/AgCl [3]: −0.70 V
